Experimental data reported in the supplement of paper PMC13380429.

What was measured:
[1] = test system: A549-ACE2 infected with SARS-CoV-2; assay: SARS-CoV-2 infection rate relative to DMSO; higher = more infection; conditions: 24 h
[2] = test system: A549-ACE2 infected with SARS-CoV-2; assay: morphology score (similarity to uninfected cells); higher = more like uninfected cells; conditions: 24 h
Calu-3 [3] = assay: cell viability relative to DMSO; higher = less toxic; conditions: 72 h
Caco-2 [4] = assay: as above; conditions: 72 h
HepG2 [5] = assay: as above; conditions: 72 h
Vero E6 [6] = assay: as above; conditions: 72 h
U2OS [7] = assay: as above; conditions: 72 h
A549-ACE2 [8] = assay: drug-induced phospholipidosis relative to tamoxifen; higher = more phospholipidosis
[9] = test system: A549-ACE2 infected with SARS-CoV-2; assay: cell count relative to DMSO; higher = less toxic; conditions: 24 h
Calu-3 [10] = assay: relative viability EC50 (midpoint between 100% and the lowest measured viability); higher = less toxic; conditions: 72 h
Caco-2 [11] = assay: as above; conditions: 72 h
HepG2 [12] = assay: as above; conditions: 72 h
Vero E6 [13] = assay: as above; conditions: 72 h
U2OS [14] = assay: as above; conditions: 72 h
Calu-3 [15] = assay: drug sensitivity score (DSS) for viability; higher = more toxic; extreme values may be limits of the assay; conditions: 72 h
Caco-2 [16] = assay: as above; conditions: 72 h
HepG2 [17] = assay: as above; conditions: 72 h
Vero E6 [18] = assay: as above; conditions: 72 h
U2OS [19] = assay: as above; conditions: 72 h
A549-ACE2 [20] = assay: phospholipidosis EC50; higher = less potent phospholipidosis inducer

C[C@H]1CCC/C=C/[C@@H]2C[C@H](O)C[C@H]2[C@H](O)/C=C/C(=O)O1 [brefeldin-A]
Conditions	SARS-CoV-2 infection rate, [1] [%]	cell count, [9] [%]	cell viability, Caco-2 [4] [%]	cell viability, Calu-3 [3] [%]	cell viability, HepG2 [5] [%]	cell viability, U2OS [7] [%]	cell viability, Vero E6 [6] [%]	morphology score, [2]
1 nM	–	–	96.6	108	95.6	99.5	95.3	–
10 nM	–	–	89.7	97.1	96.6	99.3	101	–
0.1 µM	33	108	–	–	–	–	–	0.73
100 nM	–	–	71.9	32.3	21.9	22.8	28.4	–
0.3 µM	42	52	–	–	–	–	–	0.14
1 µM	16	38	–	–	–	–	–	0.32
1000 nM	–	–	26.8	15.4	14.2	0.2	3.5	–
3 µM	30	35	–	–	–	–	–	0.26
10000 nM	–	–	28.8	10.7	14.6	0.1	3.3	–

A549-ACE2 [8], 24 h
Conditions	drug-induced phospholipidosis [%]
0.3 µM	-4.02
0.833333 µM	-5.26
3.33333 µM	-7.24
10 µM	-7

Conditions	drug sensitivity score	relative viability EC50 [µM]
Caco-2 [11]	–	0.13
Caco-2 [16]	16.3	–
Calu-3 [10]	–	0.0555
Calu-3 [15]	24.5	–
HepG2 [12]	–	0.0379
HepG2 [17]	25.6	–
U2OS [14]	–	0.0612
U2OS [19]	26.8	–
Vero E6 [13]	–	0.066
Vero E6 [18]	25.7	–

C=C1C(=O)O[C@@H]2[C@H]3C(C)=CC[C@@]34O[C@@]4(C)CC[C@@H]12 [arglabin]
Conditions	SARS-CoV-2 infection rate, [1] [%]	cell count, [9] [%]	cell viability, Caco-2 [4] [%]	cell viability, Calu-3 [3] [%]	cell viability, HepG2 [5] [%]	cell viability, U2OS [7] [%]	cell viability, Vero E6 [6] [%]	morphology score, [2]
1 nM	–	–	91.6	90.2	96.1	97.1	110	–
10 nM	–	–	97.8	99.8	92.2	102	99.2	–
100 nM	–	–	100	88.3	96.7	100	110	–
0.3 µM	105	96	–	–	–	–	–	0.02
1000 nM	–	–	104	105	98.2	105	103	–
3 µM	94	100	–	–	–	–	–	0.01
10 µM	95	78	–	–	–	–	–	-0.15
10000 nM	–	–	58.2	68	56.1	76.5	104	–
30 µM	33	36	–	–	–	–	–	0.3

drug-induced phospholipidosis [%], A549-ACE2 [8]
Conditions	0.3 µM	0.833333 µM	3.33333 µM	6.66667 µM	10 µM	30 µM
24 h	2.94	-0.34	2.52	0.97	8.21	-1.1
48 h	2.9	0.06	1.52	0.03	4.18	–
72 h	2.96	-0.707	0.896	0.278	0.729	–

Conditions	drug sensitivity score	relative viability EC50 [µM]
Caco-2 [16]	1.8	–
Calu-3 [15]	1.2	–
HepG2 [17]	2.5	–
U2OS [14]	–	> 10
U2OS [19]	0.6	–
Vero E6 [13]	–	> 10
Vero E6 [18]	0	–

O=S(=O)(c1cccc2cnccc12)N1CCCNCC1 [fasudil]
[2]
Conditions	morphology score
0.3 µM	0.21
3 µM	0.17
10 µM	0.3
30 µM	0.09

Conditions	drug sensitivity score
Caco-2 [16]	0
Calu-3 [15]	0
HepG2 [17]	0.7
U2OS [19]	0
Vero E6 [18]	0

COc1ccc2c(C)nc(Nc3nc(C)c(C)c(O)n3)nc2c1 [madrasin]
Conditions	SARS-CoV-2 infection rate, [1] [%]	cell count, [9] [%]	cell viability, Caco-2 [4] [%]	cell viability, Calu-3 [3] [%]	cell viability, HepG2 [5] [%]	cell viability, U2OS [7] [%]	cell viability, Vero E6 [6] [%]	morphology score, [2]
1 nM	–	–	105	94.7	89.9	98.6	82.8	–
10 nM	–	–	99.2	84	95.4	98.1	99.1	–
100 nM	–	–	119	97	90.9	102	91	–
0.3 µM	90	102	–	–	–	–	–	0.29
1000 nM	–	–	101	108	92.7	98.8	98.1	–
3 µM	88	105	–	–	–	–	–	0.36
10 µM	96	102	–	–	–	–	–	0.21
10000 nM	–	–	98.3	94.6	93.5	97	111	–
30 µM	1	95	–	–	–	–	–	0.75

drug-induced phospholipidosis [%], A549-ACE2 [8]
Conditions	0.3 µM	0.833333 µM	3.33333 µM	6.66667 µM	10 µM	30 µM
24 h	2.49	-0.05	-3.35	-1.32	1.34	56
48 h	3.81	-2.33	-1.09	0.46	1.75	–
72 h	0.061	-7.49	0.0944	-0.243	1.1	–

Conditions	drug sensitivity score	relative viability EC50 [µM]
Caco-2 [11]	–	> 10
Caco-2 [16]	0	–
Calu-3 [10]	–	> 10
Calu-3 [15]	0	–
HepG2 [12]	–	> 10
HepG2 [17]	0	–
U2OS [14]	–	> 10
U2OS [19]	0	–
Vero E6 [13]	–	> 10
Vero E6 [18]	0	–

CNCCC(Oc1ccc(C(F)(F)F)cc1)c1ccccc1 (centres undefined) [fluoxetine]
Conditions	morphology score, 0.3 µM	morphology score, 3 µM	morphology score, 10 µM	morphology score, 30 µM	phospholipidosis EC50, 24 h [µM]	phospholipidosis EC50, 48 h [µM]	phospholipidosis EC50, 72 h [µM]
A549-ACE2 [20]	–	–	–	–	7.05	7.62	7.61
[2]	0.06	0.65	0.87	0.74	–	–	–

Conditions	drug sensitivity score
Calu-3 [15]	0.3
HepG2 [17]	1.6
U2OS [19]	0
Vero E6 [18]	0.2

CCC(CO)(C(=O)OC1CC2CCC(C1)[N+]2(C)C)c1ccccc1 (centres undefined) [troventol]
cell viability [%]
Conditions	Caco-2 [4]	Calu-3 [3]	HepG2 [5]	U2OS [7]	Vero E6 [6]
1 nM	92.5	99.8	93.6	97.3	93.7
10 nM	92.6	94.6	103	94.3	96
100 nM	98.5	91.8	93.1	99.4	86.6
1000 nM	94.2	102	107	97.8	97.8
10000 nM	94.2	93.9	113	105	110

Conditions	drug sensitivity score	relative viability EC50 [µM]
Caco-2 [11]	–	> 10
Caco-2 [16]	0	–
Calu-3 [10]	–	> 10
Calu-3 [15]	0	–
HepG2 [12]	–	> 10
HepG2 [17]	0	–
U2OS [14]	–	> 10
U2OS [19]	0	–
Vero E6 [13]	–	> 10
Vero E6 [18]	0	–

C[C@@H]1NC(=O)[C@@H]2CCCN2C(=O)[C@H](CC(N)=O)NC(=O)[C@@H]2CSSC[C@H](N)C(=O)N[C@H]3CSSC[C@H](NC1=O)C(=O)N[C@@H]([C@@H](C)O)C(=O)NCC(=O)N[C@H](C(=O)N[C@@H](Cc1ccc(O)cc1)C(=O)O)CSSC[C@H](NC(=O)[C@H](Cc1ccc(O)cc1)NC(=O)[C@H](CCC(=O)O)NC3=O)C(=O)N2 [linaclotide]
cell viability [%]
Conditions	Caco-2 [4]	Calu-3 [3]	HepG2 [5]	U2OS [7]	Vero E6 [6]
1 nM	98.8	90.3	93.6	101	100
10 nM	98.9	91.2	93.8	101	106
100 nM	104	83.9	102	97.3	104
1000 nM	110	107	88.9	100	91.1
10000 nM	95.1	97.2	94.2	95.8	103

Conditions	drug sensitivity score	relative viability EC50 [µM]
Caco-2 [11]	–	> 10
Caco-2 [16]	0	–
Calu-3 [10]	–	> 10
Calu-3 [15]	0	–
HepG2 [12]	–	> 10
HepG2 [17]	0	–
U2OS [14]	–	> 10
U2OS [19]	0	–
Vero E6 [13]	–	> 10
Vero E6 [18]	0	–

Nc1ncnc2c1ncn2[C@@H]1O[C@H](COP(=O)(O)OP(=O)(O)OP(=O)(O)O)[C@@H](O)[C@H]1O [ADENOSINE TRIPHOSPHATE DISODIUM]
cell viability [%]
Conditions	Caco-2 [4]	Calu-3 [3]	HepG2 [5]	U2OS [7]	Vero E6 [6]
1 nM	95.3	97	101	93.8	91.9
10 nM	103	96.6	100	97.9	90.5
100 nM	99.5	104	106	93.3	90.6
1000 nM	97.1	95.3	93.2	101	90.2
10000 nM	105	110	98.4	110	106

Conditions	drug sensitivity score	relative viability EC50 [µM]
Caco-2 [11]	–	> 10
Caco-2 [16]	0	–
Calu-3 [10]	–	> 10
Calu-3 [15]	0	–
HepG2 [12]	–	> 10
HepG2 [17]	0	–
U2OS [14]	–	> 10
U2OS [19]	0	–
Vero E6 [13]	–	> 10
Vero E6 [18]	0	–

O=[N+]([O-])C(Br)(CO)CO [bronopol]
cell viability [%]
Conditions	Caco-2 [4]	Calu-3 [3]	HepG2 [5]	U2OS [7]	Vero E6 [6]
1 nM	95.2	110	112	95.5	105
10 nM	95.2	98.6	108	102	84.2
100 nM	96.5	91.6	107	95.7	106
1000 nM	98.7	103	93.3	101	90.6
10000 nM	113	105	108	102	99

Conditions	drug sensitivity score	relative viability EC50 [µM]
Caco-2 [11]	–	> 10
Caco-2 [16]	0	–
Calu-3 [10]	–	> 10
Calu-3 [15]	0	–
HepG2 [12]	–	> 10
HepG2 [17]	0	–
U2OS [14]	–	> 10
U2OS [19]	0	–
Vero E6 [13]	–	> 10
Vero E6 [18]	0	–

Clc1ccc2c(c1)CCc1cccnc1C2=C1CCNCC1 [desloratadine]
cell viability [%]
Conditions	Caco-2 [4]	Calu-3 [3]	HepG2 [5]	U2OS [7]	Vero E6 [6]
1 nM	91.2	99.9	113	100	104
10 nM	93.5	100	90.7	98.9	102
100 nM	94.7	110	97.2	97.3	104
1000 nM	90.2	104	110	104	106
10000 nM	102	106	93.1	95.6	99.9

Conditions	drug sensitivity score	relative viability EC50 [µM]
Caco-2 [11]	–	> 10
Caco-2 [16]	0	–
Calu-3 [10]	–	> 10
Calu-3 [15]	0	–
HepG2 [12]	–	> 10
HepG2 [17]	0	–
U2OS [14]	–	> 10
U2OS [19]	0	–
Vero E6 [13]	–	> 10
Vero E6 [18]	0	–

O=C(CCN1CCN(C(=O)OCc2cc(Cl)cc(Cl)c2)CC1)c1ccc2[nH]c(=O)oc2c1 [PF-8380]
cell viability [%]
Conditions	Caco-2 [4]	Calu-3 [3]	HepG2 [5]	U2OS [7]	Vero E6 [6]
1 nM	94.8	97.5	99.6	98.5	106
10 nM	101	101	96.3	101	110
100 nM	91.2	94.5	93.4	97.9	104
1000 nM	98.1	99.5	105	95.6	103
10000 nM	94.9	113	97.3	101	92.7

Conditions	drug sensitivity score	relative viability EC50 [µM]
Caco-2 [11]	–	> 10
Caco-2 [16]	0	–
Calu-3 [10]	–	> 10
Calu-3 [15]	0	–
HepG2 [12]	–	> 10
HepG2 [17]	0	–
U2OS [14]	–	> 10
U2OS [19]	0	–
Vero E6 [13]	–	> 10
Vero E6 [18]	0	–
